Test results: PubChem BioAssay (NCI)
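Where inhibition never reached the appropriate level, the endpoint shown equals the highest concentration tested. Otherwise, values were interpolated linearly from a five-concentration, 48-hour dose response in 96-well plates. GI50: concentration for 50% inhibition of growth. TGI marks complete inhibition of growth.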

Columns and labels:
Test in all cases: NCI anticancer screen, dose series, 48 h
HCC-2998 colon = tested on: HCC-2998 colon
HCT-15 colon = tested on: HCT-15 colon
NCI-H522 lung = tested on: NCI-H522 lung
RPMI-8226 leukemia = tested on: RPMI-8226 leukemia
SK-MEL-28 melanoma = tested on: SK-MEL-28 melanoma
SK-MEL-5 melanoma = tested on: SK-MEL-5 melanoma
T-47D breast = tested on: T-47D breast
TK-10 renal = tested on: TK-10 renal
U251 CNS = tested on: U251 CNS
EKVX NSCLC = tested on: EKVX NSCLC

SMILES	GI50 (HCC-2998 colon)	TGI (HCC-2998 colon)	GI50 (HCT-15 colon)	TGI (HCT-15 colon)	GI50 (NCI-H522 lung)	TGI (NCI-H522 lung)	GI50 (RPMI-8226 leukemia)	TGI (RPMI-8226 leukemia)	GI50 (SK-MEL-28 melanoma)	TGI (SK-MEL-28 melanoma)	GI50 (SK-MEL-5 melanoma)	TGI (SK-MEL-5 melanoma)	GI50 (T-47D breast)	TGI (T-47D breast)	GI50 (TK-10 renal)	TGI (TK-10 renal)	GI50 (U251 CNS)	TGI (U251 CNS)	GI50 (EKVX NSCLC)	TGI (EKVX NSCLC)
O=C1NC(=NCCc2ccccc2Cl)S/C1=C\c1ccc2ncccc2c1	6.33 µM	> 25 µM	1180 nM	> 25 µM	4.13 µM	12.3 µM	1830 nM	> 25 µM	10.7 µM	> 25 µM	6.92 µM	24.6 µM	7.34 µM	> 25 µM	3.79 µM	> 20.1 µM	2.64 µM	> 21.4 µM	–	–
COc1ccc(C(=O)Nc2cccc(C3CC(=O)c4c(cc(OC)c(OC)c4OC)O3)c2)cc1 (stereo unspecified)	3.46 µM	87.1 µM	475 nM	> 100 µM	0.411 µM	5.15 µM	726 nM	3.51 µM	5.13 µM	> 100 µM	1.49 µM	4.04 µM	2.13 µM	8.1 µM	7.28 µM	> 100 µM	–	–	3.12 µM	> 100 µM
CC1=C(C)C(=O)C(C(C)C2=C(C)C(=O)C(C)=C(C)C2=O)=C(C)C1=O	57.1 µM	> 100 µM	15200 nM	> 100 µM	30.5 µM	> 100 µM	7090 nM	31.6 µM	–	–	12.5 µM	64.6 µM	12.8 µM	26.4 µM	90.6 µM	> 100 µM	21.7 µM	> 100 µM	32.6 µM	> 100 µM
CCCNc1nc(-c2ccc(OC)cc2)nc2ccccc12	13.6 µM	34.4 µM	14300 nM	31.9 µM	22.3 µM	> 100 µM	3960 nM	22.6 µM	18.6 µM	53.6 µM	12.5 µM	27.7 µM	31.4 µM	> 100 µM	13.2 µM	26.7 µM	16.7 µM	37.8 µM	–	–
CCOc1ccc2c(c1)/C(=C\C=C\C1CC(C)C3CC(OCC)CCC3N1CC)CC(C)N2CC (stereo unspecified)	1.05 µM	2.42 µM	1160 nM	2.77 µM	0.852 µM	3.08 µM	269 nM	1.65 µM	1.36 µM	2.86 µM	0.702 µM	2.01 µM	0.334 µM	2.12 µM	1.5 µM	2.93 µM	0.38 µM	1.51 µM	–	–
Cc1nc2cc(O)c(O)cc2cc1Oc1ccc(NC(=O)Nc2ccc(Cl)c(Cl)c2)cc1	6.7 µM	14.6 µM	5470 nM	> 32.5 µM	4.43 µM	12.5 µM	7620 nM	20.7 µM	9 µM	30.1 µM	5.94 µM	14.2 µM	11.6 µM	> 32.5 µM	14.2 µM	> 32.5 µM	6.58 µM	> 32.5 µM	–	–
CNCCNc1nc2ccccc2c2c(=O)c3cccc(OC)c3sc12	1.55 µM	3.18 µM	829 nM	2.15 µM	1.34 µM	3.1 µM	1430 nM	3.28 µM	1.94 µM	3.62 µM	1.65 µM	3.04 µM	1.57 µM	3.56 µM	–	–	1.24 µM	2.65 µM	1.56 µM	3.05 µM
